# According to US11214556B1, “Method of treating colorectal cancer” (King Abdulaziz University, priority 2019, dated 2022):
# Key:
# [1] = test system: HCT-116 cells; assay: SRB cytotoxicity assay, HCT-116; type: cell-based, human; conditions: SRB assay, 72 h exposure, ± SEM
# Experimental: Compounds in this study were tested against colorectal cancer cell line HCT-116, using sulforhodamine-B (SRB) assay. See Skehan, P.; Storeng, R.; Scudiero, D.; Monks, A.; McMahon, J.; Vistica, D.; Warren, J. T.; Bokesch, H.; Kenney, S.; Boyd, M. R., New colorimetric cytotoxicity assay for anticancer-drug screening. J Natl Cancer Inst 1990, 82 (13), 1107-12, incorporated herein by reference in its entirety. […] However, it was clear that compounds bearing hydrophobic aliphatic groups such as MOS-1505 and MOS-1512 are clearly favored in providing anticancer activities. […] The N-aryl substituents were less advantageous in both potency and solubility.
# (§1) Different cell lines were originally purchased from American type culture collection (ATCC, Wesel, Germany) and grown in the tissue culture lab of the Egyptian company for production of vaccines, sera and drugs (Vacsera, Giza, Egypt). The cells were transferred to our laboratory and maintained in the appropriate media as following. HCT-116, CACO-2, and HT-29 (human colon cancer cell lines) were maintained in Roswell Park Memorial Institute medium (RPMI1640) (Invitrogen, Carlsbad, Calif.). The mouse skin fibroblasts (C-166) and Baby Hamster Kidney fibroblasts (BHK) were grown in Dulbecco Modified Eagle's medium (DMEM). Both media were supplemented with 1% of […] of streptomycin, 100 units/mL of penicillin and 10% of heat-inactivated fetal bovine serum (Invitrogen, Carlsbad, Calif.) in a humidified, 5% (v/v) CO2 atmosphere at 37° C.
# (§2) The sulforhodamine B (SRB) assays were performed according to Skehan, P.; Storeng, R.; Scudiero, D.; Monks, A.; McMahon, J.; Vistica, D.; Warren, J. T.; Bokesch, H.; Kenney, S.; Boyd, M. R., New colorimetric cytotoxicity assay for anticancer-drug screening. J Natl Cancer Inst 1990, 82 (13), 1107-12, incorporated herein by reference in its entirety. Briefly, exponentially growing cells were trypsinized, counted and seeded at the appropriate densities (5000 cells/100 μL/well) into 96-well microtiter plates. Cells were incubated in a humidified atmosphere at 37° C. for 24 h. Then, the cells were exposed to different compounds at the desired concentrations, (0.01, 0.1, 1, 10, and 100 μM) or to 1% dimethyl sulfoxide (DMSO) for 72 h. At the end of the treatment period, the media were removed, and the cells were fixed with 10% trichloroacetic acid at 4° C. for 1 hr. Following, the cells were washed with tap water four times and incubated with SRB 0.4% for 30 min. Excess dye was removed by washing repeatedly with 1% (vol/vol) acetic acid. The protein-bound dye was dissolved in 10 mM Tris base solution for (optical density) OD determination at 510 nm using a SpectraMax plus Microplate Reader (Molecular Devices, CA). Cell viability was expressed relative to the untreated control cells.
# [2] = Solubility profile; type: physicochemical; conditions: stated in words together with C log P
# [3] = test system: CACO-2 cells; assay: SRB cytotoxicity assay, CACO-2; type: cell-based, human; conditions: ± SEM
# Description: (§3) Based on the favorable pharmacologic and physicochemical properties of MOS-1512, it was selected as a new lead for the second subset of compounds (MOS-1812 to MOS-5112). The compounds in this series contained variable groups at R^1 and R^2 that were all tested against the three cancer cell lines (HCT-116, Caco-2 and HT-29).
# as §1, §2
# [4] = test system: HT-29 cells; assay: SRB cytotoxicity assay, HT-29; type: cell-based, human; conditions: 72 h exposure, ± SEM
# Description: as §3, §1, §2
# [5] = test system: CRC cell lines (HCT-116, Caco-2 and HT-29); assay: Cytotoxic activities against CRC cell lines (statement over three lines); type: cell-based; conditions: Homo sapiens
# Description: as §3, §1, §2
# [6] = Homo sapiens, Caco-2, 72 h exposure
Compound,"IC50 ([1]; Homo sapiens, HCT-116) [µM]","IC50 [3, 6] [µM]","IC50 ([4]; Homo sapiens, HT-29, monolayer) [µM]",also measured
"CCOC(=O)/C(=C/c1ccccc1)NC(=O)C=Cc1ccccc1 [Compound 15EE, Ethyl (Z)-2-cinnamamido-3-phenylacrylate]",,,,melting point: 153 °C
"O=C(C=Cc1ccccc1)N/C(=C\c1ccccc1)C(=O)NC1CCCC1 [Compound 1503, (Z)-2-cinnamamido-N-cyclopentyl-3-phenylacrylamide]",48.5 ± 3.1,,,melting point: 239 °C
"O=C(C=Cc1ccccc1)N/C(=C\c1ccccc1)C(=O)NC12CC3CC(CC(C3)C1)C2 [Compound 1505, (Z)—N-(1-adamantanyl)-2-cinnamamido-3-phenylacrylamide]",14.7 ± 0.3,,,solubility [2]: poor solubility
"O=C(/C=C/c1ccccc1)N/C(=C\c1ccccc1)C(=O)Nc1cccnc1 [Compound 1507, (Z)-2-[(E)-cinnamamido]-3-phenyl-N-(3-pyridyl)acrylamide]",> 100,,,melting point: > 250 °C (dec.)
"O=C(/C=C/c1ccccc1)N/C(=C\c1ccccc1)C(=O)NCCO [Compound 1532, (Z)-2-[(E)-cinnamamido]-N-(2-hydroxyethyl)-3-phenyl-acrylamide]",> 100,,,melting point: 204 °C
"CCCNC(=O)/C(=C/c1ccc(F)cc1)NC(=O)/C=C/c1ccc(Cl)cc1 [Compound 2312, (Z)-2-[(E)-3-(4-chlorophenyl)acrylamido]-3-(4-fluorophenyl)-N-propylacrylamide]",3.8 ± 0.24,2.6 ± 0.233,4 ± 0.14,IC50 [5]: < 5 µM
"CCCNC(=O)/C(=C/c1ccc(N(C)C)cc1)NC(=O)/C=C/c1ccc(Cl)cc1 [Compound 2812, (Z)-2-[(E)-3-(4-chlorophenyl)acrylamido]-3-[4-(dimethylamino)phenyl]-N-propylacrylamide]",20.7 ± 0.32,17 ± 0.8,9.52 ± 0.42,IC50 [5]: < 5 µM
"CCCNC(=O)/C(=C/c1c[nH]c2ccccc12)NC(=O)/C=C/c1ccc(Cl)cc1 [Compound 3812, (Z)-2-[(E)-3-(4-chlorophenyl)acrylamido]-3-(1H-indol-3-yl)-N-propylacrylamide]",3.51 ± 0.21,3.35 ± 0.05,3.41 ± 0.03,IC50 [5]: < 5 µM
"CCCNC(=O)/C(=C/c1c[nH]c2ccccc12)NC(=O)/C=C/c1ccc(OC)cc1 [Compound 3912, (Z)-3-(1H-indol-3-yl)-2-[(E)-3-(4-methoxyphenyl)acrylamido]-N-propylacrylamide]",4.35 ± 0.29,2.07 ± 0.03,2.49 ± 0.04,IC50 [5]: < 5 µM
"CCCNC(=O)/C(=C/c1cccnc1)NC(=O)C=Cc1ccccc1 [Compound 4212, (Z)-2-cinnamamido-N-propyl-3-(pyridin-3-yl)acrylamide]",73 ± 2.5,66 ± 2.2,> 100,
"CCCNC(=O)/C(=C/c1cccnc1)NC(=O)/C=C/c1ccc(Cl)cc1 [Compound 4312, (Z)-2-[(E)-3-(4-chlorophenyl)acrylamido]-N-propyl-3-(pyridin-3-yl)acrylamide]",49.4 ± 1.9,47.3 ± 1.9,36 ± 1.7,
"CCCNC(=O)/C(=C/c1cccnc1)NC(=O)/C=C/c1ccc(OC)cc1 [Compound 4412, (Z)-2-[(E)-3-(4-methoxyphenyl)acrylamido]-N-propyl-3-(pyridin-3-yl)acrylamide]",52.1 ± 1.6,38.1 ± 2,72.7 ± 6.4,
"CCCNC(=O)/C(=C/c1cccnc1)NC(=O)/C=C/c1ccc(C)cc1 [Compound 4512, (Z)—N-propyl-3-(pyridin-3-yl)-2-[(E)-3-(p-tolyl)acrylamidolacry]amide]",,,,IC50 [1]: > 100 µM; IC50 ([3]; 72 h exposure): 27 ± 1.8 µM; IC50 ([4]; monolayer): > 100 µM
"CCCNC(=O)/C(=C/c1cccnc1)NC(=O)/C=C/c1cccs1 [Compound 4612, (Z)—N-propyl-3-(pyridin-3-yl)-2-[(E)-3-(thien-2-yl)acrylamidolacry]amide]",,,,IC50 [1]: > 100 µM; IC50 ([3]; 72 h exposure): 41.8 ± 1.4 µM; IC50 ([4]; monolayer): 68.8 ± 6.9 µM
"CCCNC(=O)/C(=C/c1ccc([N+](=O)[O-])cc1)NC(=O)C=Cc1ccccc1 [Compound 4712, (Z)-2-cinnamamido-3-(4-nitrophenyl)-N-propylacrylamide]",17.3 ± 1.3,44.2 ± 2.7,23.2 ± 1.9,
"CCCNC(=O)/C(=C/c1ccc([N+](=O)[O-])cc1)NC(=O)/C=C/c1ccc(Cl)cc1 [Compound 4812, (Z)-2-[(E)-3-(4-chlorophenyl)acrylamido]-3-(4-nitrophenyl)-N-propylacrylamide]",> 100,> 100,36.9 ± 1.5,
"CCCNC(=O)/C(=C/c1ccc([N+](=O)[O-])cc1)NC(=O)/C=C/c1ccc(OC)cc1 [Compound 4912, (Z)-2-[(E)-3-(4-methoxyphenyl)acrylamido]-3-(4-nitrophenyl)-N-propylacrylamide]",> 100,> 100,74.3 ± 3.6,
"CCCNC(=O)/C(=C/c1ccc([N+](=O)[O-])cc1)NC(=O)/C=C/c1ccc(C)cc1 [Compound 5012, (Z)-3-(4-nitrophenyl)-N-propyl-2-[(E)-3-(p-tolyl)acrylamidolacry]amide]",,,,IC50 [1]: > 100 µM; IC50 ([3]; 72 h exposure): > 100 µM; IC50 ([4]; monolayer): > 100 µM
"CCCNC(=O)/C(=C/c1ccc([N+](=O)[O-])cc1)NC(=O)/C=C/c1cccs1 [Compound 5112, (Z)-3-(4-nitrophenyl)-N-propyl-2-[(E)-3-(thien-2-yl)acrylamidolacry]amide]",,,,IC50 [1]: > 100 µM; IC50 ([3]; 72 h exposure): 34.2 ± 1.1 µM; IC50 ([4]; monolayer): > 100 µM
"COc1cccc2c1C(=O)c1c(O)c3c(c(O)c1C2=O)C[C@@](O)(C(=O)CO)C[C@@H]3O[C@H]1C[C@H](N)[C@H](O)[C@H](C)O1 [Doxo, doxorubicin, reference compound]",0.6 ± 0.1,0.14 ± 0.05,0.3 ± 0.01,
